According to patent publication US7547729B2, “1,3-diphenylprop-2-en-1-one derivative compounds, preparation method thereof and uses of same” (Genfit, priority 2004, dated 2009):

Legend:
[1] = target: T1, PPARα (Homo sapiens, UniProt Q07869); assay: PPARα/Gal4 transactivation system in COS-7 cells; assay type: cell-based; conditions: 24 hours
T1 construct: expressed in transfected cells; host or cells: COS-7 cells
T1 sequence (Q07869 239-466 limits assumed): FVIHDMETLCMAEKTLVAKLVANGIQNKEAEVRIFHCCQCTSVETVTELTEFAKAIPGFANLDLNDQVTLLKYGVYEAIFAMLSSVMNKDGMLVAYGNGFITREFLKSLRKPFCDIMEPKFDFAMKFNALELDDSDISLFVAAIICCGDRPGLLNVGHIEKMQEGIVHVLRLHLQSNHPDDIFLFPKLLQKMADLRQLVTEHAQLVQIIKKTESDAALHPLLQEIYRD
In short: (§1)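 COS-7 cells transfected with Gal4-DBD/human PPAR ligand-binding-domain chimeras, pG5TkpGL3 luciferase reporter and pRL-CMV control, then treated with compound concentrations for 24 hours (protocol also states 36 hours). Luciferase measured by Steady Glow; results given as induction factor, luminescence with compound over that without.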

[2] = test system: LDL; assay: Protection against LDL oxidation by copper (conjugated diene formation); assay type: biochemical; conditions: 10^−4M
In short: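 EDTA-free LDL (125 μg protein/ml) was oxidized at 30° C. with CuSO4 (16.6 μM solution) plus compound at 0.1–100 μM final. Conjugated dienes followed by OD 232 nm every 10 min for 8 h, in triplicate; activity judged by lag-phase lengthening, reduced oxidation rate and diene amount versus control.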

[3] = target: T2, PPARγ (Homo sapiens, UniProt P37231); assay: PPARγ/Gal4 transactivation system in COS-7 cells; assay type: cell-based; conditions: 24 hours
T2 construct: expressed in transfected cells; host or cells: COS-7 cells
T2 sequence (P37231 238-503 limits assumed): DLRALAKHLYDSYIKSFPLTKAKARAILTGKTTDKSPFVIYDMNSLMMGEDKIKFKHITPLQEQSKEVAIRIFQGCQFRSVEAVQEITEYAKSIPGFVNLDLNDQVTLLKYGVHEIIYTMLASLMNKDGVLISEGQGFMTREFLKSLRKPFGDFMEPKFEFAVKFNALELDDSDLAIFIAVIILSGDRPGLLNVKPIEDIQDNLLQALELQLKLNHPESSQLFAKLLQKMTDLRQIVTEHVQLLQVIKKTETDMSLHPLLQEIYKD
In short: as §1

[4] = target: T3, PPARδ (Homo sapiens, UniProt Q03181); assay: PPARδ/Gal4 transactivation system in COS-7 cells; assay type: cell-based; conditions: 24 hours
T3 construct: expressed in transfected cells; host or cells: COS-7 cells
T3 sequence (Q03181 211-439 limits assumed): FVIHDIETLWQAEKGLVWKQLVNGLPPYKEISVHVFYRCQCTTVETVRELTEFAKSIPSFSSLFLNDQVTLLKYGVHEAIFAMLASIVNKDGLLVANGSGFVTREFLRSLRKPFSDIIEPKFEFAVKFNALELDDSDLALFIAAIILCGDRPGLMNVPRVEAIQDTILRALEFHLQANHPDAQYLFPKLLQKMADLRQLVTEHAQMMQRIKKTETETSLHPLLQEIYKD
Experimental: COS-7 cells were incubated with different concentrations of the inventive compounds for 24 hours. The results are expressed as the induction factor (ratio of luminescent signal obtained with the compound and that observed without the compound) after the different treatments.
PPAR activation was tested in vitro in RK13 epitheloid or COS-7 cell lines by measuring the transcriptional activity of chimeras composed of the DNA binding domain of the yeast gal4 transcription factor and the ligand binding domain of the different PPARs. These latter results were then confirmed in cell lines according to the following protocols:
RK13 cells were from ECACC (Porton Down, UK), COS-7 cells were from the ATCC (American Type Culture Collection) and were grown in DMEM medium supplemented with 10% (VN) fetal calf serum, 100 U/ml penicillin (Gibco, Paisley, UK) and 2 mM L-glutamine (Gibco, Paisley, UK). The culture medium was changed every two days. Cells were kept at 37° C. in a humidified 95% air/5% CO2 atmosphere.
The plasmids pG5TkpGL3, pRL-CMV, pGal4-hPPARα, pGal4-hPPARγ, pGal4-hPPARδ and pGal4-φ have been described by Raspe, Madsen et al. (1999). The pGal4-mPPARα, pGal4-hPPARγ and pGal4-hPPARδ constructs were obtained by cloning into the pGal4-φ vector of PCR-amplified DNA fragments corresponding to the DEF domains of the human PPARα, PPARγ and PPARδ nuclear receptors.
RK13 cells were seeded in 24-well culture dishes at 5×10^4 cells/well, COS-7 cells in 96-well culture dishes at 5×10^4 cells/well and transfected for 2 hours with the reporter plasmid pG5TkpGL3 (50 ng/well), the expression vectors pGal4-φ, pGal4-mPPARα, pGal4-hPPARα, pGal4-hPPARγ, pGal4-hPPARδ (100 ng/well) and the transfection efficiency control vector pRL-CMV (1 ng/well) according to the previously described protocol (Raspe, Madsen et al. 1999), then incubated for 36 hours with the test compounds. At the end of the experiment, the cells were lysed (Gibco, Paisley, UK) and luciferase activity was determined with a Dual-Luciferase™ Reporter Assay System kit (Promega, Madison, Wis., USA) for RK13 cells and Steady Glow Luciferase (Promega) for COS-7 cells according to the supplier's instructions as previously described. The protein content of the cell extracts was then measured with the Bio-Rad Protein Assay (Bio-Rad, Munich, Germany) as directed by the supplier.

[5] = test system: naive CD4+ T cells; assay: Mixed Lymphocyte Reaction (MLR), BrdU incorporation; assay type: cell-based
Experimental: FIG. 23 illustrates a Mixed Lymphocyte Reaction (MLR) carried out in the presence of increasing amounts of dendritic cells treated or not with compound 31 and incubated with naive CD4+ T cells for seven days. T cell proliferation was determined by BrdU (bromodeoxyuridine) incorporation.
For this experiment, increasing amounts of mature dendritic cells (treated or not with the compound) were incubated with a fixed amount of naive CD4+ T cells from another donor. After a 5-day incubation, BrdU (bromodeoxyuridine) was added for 24 hours and the incorporation thereof in T cells was determined by ELISA with anti-BrdU antibodies coupled to chemiluminescent tags.

Structure (SMILES): Cc1cc(/C=C/C(=O)c2c(C)c(C)c(C)c(C)c2C)cc(C)c1OC(C)(C)C(=O)O [compound 31, 1-(2,3,4,5,6-Pentamethylphenyl)-3-(4-carboxydimethylmethyloxy-3,5-dimethylphenyl)prop-2-en-1-one]
- Induction factor ([1]; 0.001 μM): 1.10
- Induction factor ([1]; 0.003 μM): 1.09
- Induction factor ([1]; 0.01 μM): 1.23
- Induction factor ([1]; 0.03 μM): 1.23
- Induction factor ([1]; 0.1 μM): 1.23
- Induction factor ([1]; 0.3 μM): 1.73
- Induction factor ([1]; 1 μM): 1.88
- Induction factor ([1]; 3 μM): 3.69
- Induction factor ([1]; 10 μM): 6.03
- kinetics of LDL oxidation (lag phase) ([2]; FIG. 5a, no control value printed): 124.5 min
- LDL oxidation rate ([2]; FIG. 5b, absence of compounds 2): 1.4 nmol/min/mg
- total amount of dienes formed ([2]; FIG. 5c, absence of compounds 386): 352 nmol/mg
- Induction factor ([3]; 0.001 μM): 1.44
- Induction factor ([3]; 0.003 μM): 2.19
- Induction factor ([3]; 0.01 μM): 3.06
- Induction factor ([3]; 0.03 μM): 4.87
- Induction factor ([3]; 0.1 μM): 5.99
- Induction factor ([3]; 0.3 μM): 6.96
- Induction factor ([3]; 1 μM): 7.05
- Induction factor ([3]; 3 μM): 7.79
- Induction factor ([4]; 0.001 μM): 1.00
- Induction factor ([4]; 0.003 μM): 1.05
- Induction factor ([4]; 0.01 μM): 1.09
- Induction factor ([4]; 0.03 μM): 1.16
- Induction factor ([4]; 0.1 μM): 1.35
- Induction factor ([4]; 0.3 μM): 2.67
- Induction factor ([4]; 1 μM): 4.12
- Induction factor ([4]; 3 μM): 10.82
- Induction factor ([4]; 10 μM): 11.70
- capacity of treated dendritic cells to induce proliferation of naive CD4+ T cells [5]: lower capacity
